Assay results from US10266510B2, “Antimicrobial and cytotoxic compounds and methods for treating cancer, a bacterial infection, and/or a fungal infection” (King Abdulaziz University, priority 2017, dated 2019).
Converted amounts (≈) assume the structure as drawn.

Assays:
[1] = system: HCT116 (colon cancer cell line); experiment: Tumor cell growth assay (sulforhodamine B), HCT116; assay type: cell-based; conditions: for Remarks (% at 100 ppm): 48 h; for Inhibitory effect on in vitro growth (in words): 48 h exposure; for LC90: death of 90% of cells in 48 hrs
Source text: (§1) Reagents: Fetal bovine serum (FBS) and L-glutamine were purchased from Gibco Invitrogen Co. (Scotland, UK). RPMI-1640 medium was from Cambrex (New Jersey, USA). Dimethyl sulfoxide (DMSO), doxorubicin, penicillin, streptomycin and sulforhodamine B (SRB) were from Sigma Chemical Co. (Saint Louis, USA).
(§2) Cell cultures: Three human tumor cell lines, HCT116 (colon cell line), HePG 2 (human hepatocellular carcinoma cell line), and MCF7 (human breast adenocarcinoma) were used. In vitro bioassay on human tumor cell lines were conducted and determined by the Bioassay-Cell Culture Laboratory, National Research Centre, El-Tahrir St., Dokki, Cairo 12622, Egypt. They grew as a monolayer and are routinely maintained in RPMI-1640 medium supplemented with 5% heat-inactivated FBS, 2 mM glutamine and antibiotics (penicillin 100 U/mL, streptomycin 100 μg/mL), at 37° C. in a humidified atmosphere containing 5% CO2. Exponentially growing cells were obtained by plating 1.5×10^5 cells/mL for MCF-7 and HCT116 and 0.75×10^4 cells/mL for HePG2, followed by 24 h of incubation. The effect of the vehicle solvent (DMSO) on the growth of these cell lines was evaluated in all experiments by exposing untreated control cells to the maximum concentration (0.5%) of DMSO used in each assay.
(§3) Tumor cell growth assay: The effect on the in vitro growth of human tumor cell lines was evaluated according to the procedure adopted by the National Cancer Institute (NCI, USA) in the ‘In vitro Anticancer Drug Discovery Screen’ that uses the protein-binding dye sulforhodamine B to assess cell growth. Briefly, cells growing in 96-well plates were then exposed for 48 h to five serial concentrations of each compound, starting from a maximum concentration of 78 μM (P. Skehan, R. Storeng, D. Scudiero, A. Monks, J. McMahon, D. Vistica, J. T. Warren, H. Bokesch, S. Kenney, M. R. Boyd, J. Natl. Cancer Inst., 82, 1107 (1990), incorporated herein by reference in its entirety). Following this exposure period adherent cells were fixed, washed, and stained. The bound stain was solubilized and the absorbance was measured at 492 nm in a plate reader (Bio-Tek Instruments Inc., Power wave XS, Wincoski, USA). For each test compound and cell line, a dose-response curve was obtained and the growth inhibition of 50% (GI50), corresponding to the concentration of the compounds that inhibited 50% of the net cell growth, was calculated as described elsewhere (A. Monks, D. Scudiero, P. Skehan, R. Shoemaker, K. Paull, D. Vistica, C. Hose, J. Langley, P. Cronise, A. Vaigro-Wolff, M. Gray-Goodrich, H. Campbell, J. Mayo, M. J. Boyd, Natl. Cancer Inst., 83, 757 (1991), incorporated herein by reference in its entirety). Doxorubicin was used as a positive control and tested in the same manner.

[2] = system: HePG 2 (human hepatocellular cancer cell line); experiment: Tumor cell growth assay (sulforhodamine B), HePG 2; assay type: cell-based; conditions: for Remarks (% at 100 ppm): 48 h; for Inhibitory effect on in vitro growth (in words): 48 h exposure
Source text: as §1, §2, §3

[3] = system: MCF7 (human breast cancer cell line); experiment: Tumor cell growth assay (sulforhodamine B), MCF7; assay type: cell-based; conditions: for Remarks (% at 100 ppm): 48 h; for Inhibitory effect on in vitro growth (in words): 48 h exposure; for LC90: death of 90% of cells in 48 hrs
Source text: as §1, §2, §3

[4] = system: Aspergillus flavus ATCC 16883; experiment: MIC by agar well diffusion method; assay type: cell-based; conditions: 25° C., 48 h, dilutions 50 to 500 μg/mL; for MIC: Aspergillus flavus, ATCC16883
Source text: (§4) The common pathogenic and food spoilage microorganisms were selected for their relevance in bakery products and other food: the gram-positive bacteria: Bacillus subtilits NRRL-B-4219, Staphylococcus aureus ATCC 6538, Enterococcus faecalis ATCC 19433; the gram negative bacteria: Escherichia coli ATCC 25922, Pseudomonas aeruginosa ATCC 9027, Proteus sp.; yeasts, such as Candida albicans ATCC 10231; and fungi: Aspergillus niger NRRL 2766 (equivalent to ATCC 16888), and Aspergillus flavus ATCC 16883. The bacteria were slanted on nutrient agar (Merck, Darmstadt, Germany), yeast was slanted and mentioned on Sabaroud's agar medium (Lab M., Bury, Lancashire, UK) and the fungi was slanted and mentioned on the potato Dextrose Agar medium (Lab M Limited, Bury, Lancashire, UK). Mueller-Hinton agar (Lab M., Bury, Lancashire, UK) following the manufacturer's instructions was used for the assay. The in vitro minimum inhibitory concentration (MIC) of the synthesized compounds was determined by the agar well diffusion method. DMSO was used to prepare different concentrations ranging from 50 to 500 μg/mL by serial dilutions. The media were inoculated with 100 μL of each of the 10^6 cfu/mL bacterial and fungal strains, and the assay was applied by an agar well diffusion method. Blank DMSO was used as negative control. The plates were incubated aerobically in an incubator at 37° C. for 24 h for bacterial strains and 25° C. for 48 h for fungal strains. The MIC was taken as the lowest concentration in the series dilution that prevented bacterial growth.

[5] = system: Aspergillus niger NRRL 2766; experiment: MIC by agar well diffusion method; assay type: cell-based; conditions: 25° C., 48 h, dilutions 50 to 500 μg/mL; for MIC: Aspergillus niger, NRRL2766
Source text: as §4

[6] = system: Bacillus subtilits NRRL-B-4219; experiment: MIC by agar well diffusion method; assay type: cell-based; conditions: 37° C., 24 h, dilutions 50 to 500 μg/mL; for MIC: Bacillus, NRRLB4219
Source text: as §4

[7] = system: Candida albicans ATCC 10231; experiment: MIC by agar well diffusion method; assay type: cell-based; conditions: 25° C., 48 h, dilutions 50 to 500 μg/mL; for MIC: Candida albicans, ATCC10231
Source text: as §4

[8] = system: Enterococcus faecalis ATCC 19433; experiment: MIC by agar well diffusion method; assay type: cell-based; conditions: 37° C., 24 h, dilutions 50 to 500 μg/mL; for MIC: Enterococcus faecalis, ATCC19433, read-out: MIC, Ent. faecalis
Source text: as §4

[9] = system: Escherichia coli ATCC 25922; experiment: MIC by agar well diffusion method; assay type: cell-based; conditions: 37° C., 24 h, dilutions 50 to 500 μg/mL; for MIC: Escherichia coli, ATCC25922
Source text: as §4

Proteus sp. = experiment: MIC by agar well diffusion method; assay type: cell-based; conditions: 37° C., 24 h; dilutions 50 to 500 μg/mL
Source text: as §4

[10] = system: Pseudomonas aeruginosa ATCC 9027; experiment: MIC by agar well diffusion method; assay type: cell-based; conditions: 37° C., 24 h, dilutions 50 to 500 μg/mL; for MIC: Pseudomonas aeruginosa, ATCC9027, read-out: MIC, P. aeruginosa
Source text: as §4

[11] = system: Staphylococcus aureus ATCC 6538; experiment: MIC by agar well diffusion method; assay type: cell-based; conditions: 37° C., 24 h, dilutions 50 to 500 μg/mL; for MIC: Staphylococcus aureus, ATCC6538, read-out: MIC, S. aureus
Source text: as §4

With `CCOC1Oc2ccccc2C(=O)C1=NNc1ccccc1OC` (stereo not shown) [Compound 6b, 2-ethoxy-3-(2-(2-methoxyphenyl)hydrazono)chroman-4-one] the “Remarks (% at 100 ppm)” value [1] was 39.6% at 100 ppm, the “Remarks (% at 100 ppm)” value [2] was 56.1% at 100 ppm and the “Remarks (% at 100 ppm)” value [3] was 22.9% at 100 ppm. For the same compound, the MIC [4] was 350 µg/mL (≈ 1070 µM), the MIC [5] was 300 µg/mL (≈ 919 µM) and the MIC [6] was 200 µg/mL (≈ 613 µM). For the same compound, the MIC [7] was 400 µg/mL (≈ 1230 µM), the MIC [8] was 450 µg/mL (≈ 1380 µM) and the MIC [9] was 250 µg/mL (≈ 766 µM). For the same compound, the MIC (Proteus sp.) was 350 µg/mL (≈ 1070 µM), the MIC [10] was 400 µg/mL (≈ 1230 µM) and the MIC [11] was 300 µg/mL (≈ 919 µM). The melting point was 158 °C.

In the case of `CCOC1Oc2ccccc2C(=O)C1=NNc1ccc(Cl)cc1` (stereo not shown) [Compound 6c, 3-[(4-Chlorophenyl)hydrazono]-2-ethoxychroman-4-one], the “Inhibitory effect on in vitro growth (in words)” value (from here on “Inhibitory effect”) [1] is reported as “highest inhibitory effect”, the CC50 ([1]; Homo sapiens, HCT-116, death of 50% of cells in 48 hrs, read-out: LC50 (the source's name)) is reported as 13.2 µg/mL (≈ 39.9 µM) and the “Remarks (% at 100 ppm)” value [1] is reported as 100% at 100 ppm. For the same compound, the LC90 [1] was 23.1 µg/mL (≈ 69.8 µM), the “Inhibitory effect” value [2] was “highest inhibitory effect” and the LC50 (concentration killing 50% of cells) ([2]; Homo sapiens, HepG2, death of 50% of cells in 48 hrs) was 39 µg/mL. For the same compound, the “Remarks (% at 100 ppm)” value [2] was 94.2% at 100 ppm, the LC90 ([2]; death of 90% of cells in 48 hrs) was 68.9 µg/mL (≈ 208 µM) and the “Inhibitory effect” value [3] was “highest inhibitory effect”. For the same compound, the LC50 (concentration killing 50% of cells) ([3]; Homo sapiens, death of 50% of cells in 48 hrs) was 15.8 µg/mL, the “Remarks (% at 100 ppm)” value [3] was 100% at 100 ppm and the LC90 [3] was 27.0 µg/mL (≈ 81.6 µM). It also gave an MIC [4] of 200 µg/mL (≈ 605 µM), an MIC [5] of 100 µg/mL (≈ 302 µM) and an MIC [6] of 75 µg/mL (≈ 227 µM). For the same compound, the MIC [7] was 50 µg/mL (≈ 151 µM), the MIC [8] was 200 µg/mL (≈ 605 µM) and the MIC [9] was 50 µg/mL (≈ 151 µM). For the same compound, the MIC (Proteus sp.) was 150 µg/mL (≈ 453 µM), the MIC [10] was 150 µg/mL (≈ 453 µM) and the MIC [11] was 150 µg/mL (≈ 453 µM).

With “Ethoxy-3-[(4-nitro-phenyl)-hydrazono]-chroman-one [Compound 6a]” the “Inhibitory effect” value [1] was “highest inhibitory effect”, the “Remarks (% at 100 ppm)” value [1] was 65.3% at 100 ppm and the LC90 [1] was 123.3 µg/mL. For the same compound, the “Inhibitory effect” value [2] was “highest inhibitory effect”, the “Remarks (% at 100 ppm)” value [2] was 45.3% at 100 ppm and the “Inhibitory effect” value [3] was “highest inhibitory effect”. For the same compound, the “Remarks (% at 100 ppm)” value [3] was 61.3% at 100 ppm, the LC50 ([3]; death of 50% of cells in 48 hrs) was 76.3 µg/mL and the LC90 [3] was 124.1 µg/mL. The “MIC, A. flavus” value [4] was 250 µg/mL, the “MIC, A. niger” value [5] was 200 µg/mL and the “MIC, B. subtilits” value [6] was 150 µg/mL. For the same compound, the “MIC, C. albicans” value [7] was 250 µg/mL, the “MIC, Ent. faecalis” value [8] was 250 µg/mL and the “MIC, E. coli” value [9] was 100 µg/mL. For the same compound, the “MIC, Proteus sp.” value (Proteus sp.) was 250 µg/mL, the “MIC, P. aeruginosa” value [10] was 300 µg/mL and the “MIC, S. aureus” value [11] was 350 µg/mL.
